Measured values published in patent US8124780B2, “Benzimidazole compound” (priority 2005, dated 2012).
Structures can show the parent of a compound that is named as a salt. Where two headings read alike, the source gives them in different places.

Tested on: gastric acid secretion
Assay: animal or person
Assay type: in vivo, dog
Conditions: for inhibition in vivo at 0.8 mg/kg / inhibition in vivo at 1.6 mg/kg / inhibition in vivo at 0.2 mg/kg / inhibition in vivo at 0.4 mg/kg / inhibition in vivo at 0.1 mg/kg: Canis lupus familiaris; for inhibition in vivo at 0.1 mg/kg: dose 0.1 mg/kg i.d.
[1] = iv, 24 h, read-out: Persistency of inhibitory effect against gastric acid secretion (%)
[2] = iv, read-out: Inhibitory effect against gastric acid secretion (%)

Molecule `CC1(CCOc2ccnc(C[S+]([O-])c3nc4ccccc4[nH]3)c2)OCC2(CO1)OCCO2` (centres unmarked) [Example 75, 2-(((4-(2-(8-methyl-1,4,7,9-tetraoxaspiro[4.5]dec-8-yl)ethoxy)pyridin-2-yl)methyl)sulfinyl)-1H-benzimidazole sodium salt] has an inhibition in vivo at 0.8 mg/kg [1] of 75% and an inhibition in vivo at 0.8 mg/kg [2] of 85%.
In the case of `Cc1c(OCCC2COC(C)(C)O2)ccnc1C[S+]([O-])c1nc2ccccc2[nH]1` (centres unmarked) [Example 64, 2-(((4-(2-(2,2-dimethyl-1,3-dioxolan-4-yl)ethoxy)-3-methylpyridin-2-yl)methyl)sulfinyl)-1H-benzimidazole sodium salt], the inhibition in vivo at 0.8 mg/kg [1] is reported as 78% and the inhibition in vivo at 0.8 mg/kg [2] is reported as 100%.
With `Cc1c(OCC2COCOC2)ccnc1C[S+]([O-])c1nc2ccccc2[nH]1` (centres unmarked) [Example 53, 2-(((4-(1,3-dioxan-5-ylmethoxy)-3-methylpyridin-2-yl)methyl)sulfinyl)-1H-benzimidazole sodium salt] the inhibition in vivo at 0.8 mg/kg [1] was 87% and the inhibition in vivo at 0.8 mg/kg [2] was 99%.
`CCCC1(CCOc2ccnc(C[S+]([O-])c3nc4ccccc4[nH]3)c2C)OCCO1` (centres unmarked) [Example 3, 2-(((3-methyl-4-(2-(2-propyl-1,3-dioxolan-2-yl)ethoxy)pyridin-2-yl)methyl)sulfinyl)-1H-benzimidazole sodium salt] was tested, and the inhibition in vivo at 0.8 mg/kg [1] was 86% and the inhibition in vivo at 0.8 mg/kg [2] was 100%.
Molecule `[O-][S+](Cc1cc(OCC2COC(CF)(CF)OC2)ccn1)c1nc2ccccc2[nH]1` (centres unmarked) [Example 59, 2-(((4-((2,2-bis(fluoromethyl)-1,3-dioxan-5-yl)methoxy)pyridin-2-yl)methyl)sulfinyl)-1H-benzimidazole sodium salt] has an inhibition in vivo at 0.8 mg/kg [1] of 77% and an inhibition in vivo at 0.8 mg/kg [2] of 89%.
With `Cc1c(OCC2COCO2)ccnc1C[S+]([O-])c1nc2ccccc2[nH]1` (centres unmarked) [Example 87, 2-(((4-(1,3-dioxolan-4-ylmethoxy)-3-methylpyridin-2-yl)methyl)sulfinyl)-1H-benzimidazole sodium salt] the inhibition in vivo at 0.8 mg/kg [1] was 92% and the inhibition in vivo at 0.8 mg/kg [2] was 100%.
`Cc1c(OC2COC(C)(C)OC2)ccnc1C[S+]([O-])c1nc2ccccc2[nH]1` (centres unmarked) [Example 26, 2-(((4-((2,2-dimethyl-1,3-dioxan-5-yl)oxy)-3-methylpyridin-2-yl)methyl)sulfinyl)-1H-benzimidazole sodium salt] showed an inhibition in vivo at 1.6 mg/kg [1] of 80% and an inhibition in vivo at 1.6 mg/kg [2] of 100%.
`Cc1c(OCC2(C)OCCCO2)ccnc1C[S+]([O-])c1nc2ccccc2[nH]1` (centres unmarked) [Example 33, 2-(((3-methyl-4-((2-methyl-1,3-dioxan-2-yl)methoxy)pyridin-2-yl)methyl)sulfinyl)-1H-benzimidazole sodium salt] showed an inhibition in vivo at 1.6 mg/kg [1] of 84% and an inhibition in vivo at 1.6 mg/kg [2] of 100%.
In the case of `Cc1c(OCC2OCC3(CC3)CO2)ccnc1C[S+]([O-])c1nc2ccccc2[nH]1` (centres unmarked) [Example 2, 2-(((4-(5,7-dioxaspiro[2.5]oct-6-ylmethoxy)-3-methylpyridin-2-yl)methyl)sulfinyl)-1H-benzimidazole sodium salt], the inhibition in vivo at 0.2 mg/kg [1] is reported as 52%, the inhibition in vivo at 0.4 mg/kg [1] is reported as 90% and the inhibition in vivo at 0.8 mg/kg [1] is reported as 96%. It also gave an inhibition in vivo at 0.2 mg/kg [2] of 83%, an inhibition in vivo at 0.4 mg/kg [2] of 100% and an inhibition in vivo at 0.8 mg/kg [2] of 100%.
Work on `COCC1(CCOc2ccnc(C[S+]([O-])c3nc4ccccc4[nH]3)c2C)OCCCO1` (centres unmarked) [Example 36, 2-(((4-(2-(2-(methoxymethyl)-1,3-dioxan-2-yl)ethoxy)-3-methylpyridin-2-yl)methyl)sulfinyl)-1H-benzimidazole sodium salt] yielded an inhibition in vivo at 1.6 mg/kg [1] of 90% and an inhibition in vivo at 1.6 mg/kg [2] of 100%.
`Cc1c(OC2CCC3(CC2)OCCO3)ccnc1C[S+]([O-])c1nc2ccccc2[nH]1` (centres unmarked) [Example 27, 2-(((4-(1,4-dioxaspiro[4.5]dec-8-yloxy)-3-methylpyridin-2-yl)methyl)sulfinyl)-1H-benzimidazole sodium salt] showed an inhibition in vivo at 1.6 mg/kg [1] of 92% and an inhibition in vivo at 1.6 mg/kg [2] of 100%.
`[O-][S+](Cc1cc(OCC2COC3(CCOCC3)OC2)ccn1)c1nc2ccccc2[nH]1` (centres unmarked) [Example 60, 2-(((4-(1,5,9-trioxaspiro[5.5]undec-3-ylmethoxy)pyridin-2-yl)methyl)sulfinyl)-1H-benzimidazole sodium salt] showed an inhibition in vivo at 0.8 mg/kg [1] of 74% and an inhibition in vivo at 0.8 mg/kg [2] of 89%.
Molecule `Cc1cnc(C[S+]([O-])c2nc3cc(F)ccc3[nH]2)c(C)c1OCC1COC(C)(C)OC1` (centres unmarked) [Example 56, 2-(((4-((2,2-dimethyl-1,3-dioxan-5-yl)methoxy)-3,5-dimethylpyridin-2-yl)methyl)sulfinyl)-5-fluoro-1H-benzimidazole sodium salt] has an inhibition in vivo at 0.8 mg/kg [1] of 74% and an inhibition in vivo at 0.8 mg/kg [2] of 84%.
For `Cc1c(OCCC2(C)OCCCO2)ccnc1C[S+]([O-])c1nc2ccccc2[nH]1` (centres unmarked) [Example 30, 2-(((3-methyl-4-(2-(2-methyl-1,3-dioxan-2-yl)ethoxy)pyridin-2-yl)methyl)sulfinyl)-1H-benzimidazole sodium salt], the inhibition in vivo at 0.8 mg/kg [1] was 63%, the inhibition in vivo at 1.6 mg/kg [1] was 95% and the inhibition in vivo at 0.8 mg/kg [2] was 100%. The inhibition in vivo at 1.6 mg/kg [2] was 100%.
Molecule `Cc1c(OCCC2COC3(CCC3)OC2)ccnc1C[S+]([O-])c1nc2ccccc2[nH]1` (centres unmarked) [Example 31, 2-(((4-(2-(5,9-dioxaspiro[3.5]non-7-yl)ethoxy)-3-methylpyridin-2-yl)methyl)sulfinyl)-1H-benzimidazole sodium salt] has an inhibition in vivo at 1.6 mg/kg [1] of 97% and an inhibition in vivo at 1.6 mg/kg [2] of 100%.
With `Cc1c(OCC2COc3ccccc3O2)ccnc1C[S+]([O-])c1nc2ccccc2[nH]1` (centres unmarked) [Example 61, 2-(((4-(2,3-dihydro-1,4-benzodioxin-2-ylmethoxy)-3-methylpyridin-2-yl)methyl)sulfinyl)-1H-benzimidazole sodium salt] the inhibition in vivo at 1.6 mg/kg [1] was 90% and the inhibition in vivo at 1.6 mg/kg [2] was 100%.
In the case of `CCC1(COc2ccnc(C[S+]([O-])c3nc4ccccc4[nH]3)c2C)OCCO1` (centres unmarked) [Example 40, 2-(((4-((2-ethyl-1,3-dioxolan-2-yl)methoxy)-3-methylpyridin-2-yl)methyl)sulfinyl)-1H-benzimidazole sodium salt], the inhibition in vivo at 0.8 mg/kg [1] is reported as 66%, the inhibition in vivo at 1.6 mg/kg [1] is reported as 92% and the inhibition in vivo at 0.8 mg/kg [2] is reported as 99%. It also gave an inhibition in vivo at 1.6 mg/kg [2] of 100%.
Work on `Cc1c(OCC2OCC(F)(F)CO2)ccnc1C[S+]([O-])c1nc2ccccc2[nH]1` (centres unmarked) [Example 46, 2-(((4-((5,5-difluoro-1,3-dioxan-2-yl)methoxy)-3-methylpyridin-2-yl)methyl)sulfinyl)-1H-benzimidazole sodium salt] yielded an inhibition in vivo at 0.8 mg/kg [1] of 95% and an inhibition in vivo at 0.8 mg/kg [2] of 100%.
Work on `Cc1c(OC2CCC3(CC2)OCC(C)(C)CO3)ccnc1C[S+]([O-])c1nc2ccccc2[nH]1` (centres unmarked) [Example 81, 2-(((4-((3,3-dimethyl-1,5-dioxaspiro[5.5]undec-9-yl)oxy)-3-methylpyridin-2-yl)methyl)sulfinyl)-1H-benzimidazole sodium salt] yielded an inhibition in vivo at 0.8 mg/kg [1] of 70% and an inhibition in vivo at 0.8 mg/kg [2] of 96%.
With `Cc1cnc(C[S+]([O-])c2nc3ccccc3[n-]2)c(C)c1OCC1COC(C)(C)OC1.[Na+]` (stereo not drawn) [Example 20, Sodium salt of an optical isomer (short in retention time) of 2-(((4-(2,2-dimethyl-1,3-dioxan-5-yl)methoxy-3,5-dimethylpyridin-2-yl)methyl)sulfinyl)-1H-benzimidazole] the inhibition in vivo at 0.1 mg/kg (i.d., 24 h, second day, 24 hours after administration, histamine i.v., read-out: Persistency of inhibitory effect against gastric acid secretion (%)) was 6%, the inhibition in vivo at 0.2 mg/kg (i.d., 24 h, dose 0.2 mg/kg i.d., second day, 24 hours after administration, histamine i.v., read-out: Persistency of inhibitory effect against gastric acid secretion (%)) was 46% and the inhibition in vivo at 0.1 mg/kg (i.d., first day, 1 h 40 min to 2 h after administration, histamine i.v., read-out: Inhibitory effect against gastric acid secretion (%)) was 8%. For the same molecule, the inhibition in vivo at 0.2 mg/kg (i.d., dose 0.2 mg/kg i.d., first day, 1 h 40 min to 2 h after administration, histamine i.v., read-out: Inhibitory effect against gastric acid secretion (%)) was 65%, the “Inhibitory effect against gastric acid secretion (%)” value (dose 0.4 mg/kg i.d., first day, 1 h 40 min to 2 h after administration, histamine i.v., 0.4 mg/kg) was 97% and the “Persistency of inhibitory effect against gastric acid secretion (%)” value (shortened to “Persistency of inhibitory effect … (%)”) (dose 0.4 mg/kg i.d., second day, 24 hours after administration, histamine i.v., 0.4 mg/kg) was 77%. For the same molecule, the “Inhibitory effect against gastric acid secretion (%)” value (dose 0.8 mg/kg i.d., first day, 1 h 40 min to 2 h after administration, histamine i.v., 0.8 mg/kg) was 100% and the “Persistency of inhibitory effect … (%)” value (dose 0.8 mg/kg i.d., second day, 24 hours after administration, histamine i.v., 0.8 mg/kg) was 89%.
`Cc1c(OCC2OCC3(CCC3)CO2)ccnc1C[S+]([O-])c1nc2ccccc2[nH]1` (centres unmarked) [Example 85, 2-(((4-(6,8-dioxaspiro[3.5]non-7-ylmethoxy)-3-methylpyridin-2-yl)methyl)sulfinyl)-1H-benzimidazole sodium salt] was tested, and the inhibition in vivo at 0.8 mg/kg [1] was 86% and the inhibition in vivo at 0.8 mg/kg [2] was 100%.
For `CCC12OCC(COc3ccnc(C[S+]([O-])c4nc5ccccc5[n-]4)c3C)(CO1)CO2.[Na+]` (centres unmarked) [Example 29, 2-(((4-((1-ethyl-2,6,7-trioxabicyclo[2.2.2]oct-4-yl)methoxy)-3-methylpyridin-2-yl)methyl)sulfinyl)-1H-benzimidazole sodium salt], the “Inhibitory effect against gastric acid secretion (%)” value (dog, in vivo, iv, 1.6 mg/kg) was 100% and the “Persistency of inhibitory effect … (%)” value (dog, in vivo, iv, 1.6 mg/kg) was 87%.
In the case of `Cc1c(OCC2OCCCO2)ccnc1C[S+]([O-])c1nc2ccccc2[nH]1` (centres unmarked) [Example 32, 2-(((4-(1,3-dioxan-2-ylmethoxy)-3-methylpyridin-2-yl)methyl)sulfinyl)-1H-benzimidazole sodium salt], the inhibition in vivo at 1.6 mg/kg [1] is reported as 83% and the inhibition in vivo at 1.6 mg/kg [2] is reported as 100%.
`Cc1c(OCC2COC(C)(C)OC2)ccnc1C[S+]([O-])c1nc2ccccc2[nH]1` (centres unmarked) [Example 12, 2-(((4-((2,2-dimethyl-1,3-dioxan-5-yl)methoxy)-3-methylpyridin-2-yl)methyl)sulfinyl)-1H-benzimidazole sodium salt] gave an inhibition in vivo at 0.8 mg/kg [1] of 86% and an inhibition in vivo at 0.8 mg/kg [2] of 100%.
